Measurements taken from patent publication US20240327415A1, “Multicomponent Complexes, Including Salts, Crystalline Forms, and Hydrates and Solvates of ENT1 Inhibitors” (iTeos Belgium SA, priority 2023, published 2024).

Assays:
[1] = pH solubility studies in buffers and biorelevant media (Example 16); assay type: physicochemical; design: key: M4: Crystalline Form 4 mono(hydrogen sulfate); Crystalline Form 2 di(hydrogen sulfate) trihydrate; Amorphous; conditions: pH 6.8 (Phosphate), 24 h
Procedure: Example 16—pH Solubility Studies—(1) Crystalline Form 2 Compound 1 di(hydrogen sulfate) trihydrate, (2) Crystalline Form 3 Compound 1 di(hydrogen sulfate), and (3) Crystalline Form 4 Compound 1 mono(hydrogen sulfate): pH solubility studies were carried out on the prepared crystalline Form 2 Compound 1 di(hydrogen sulfate) trihydrate, crystalline Form 3 Compound 1 di(hydrogen sulfate) and crystalline Form 4 Compound 1 mono(hydrogen sulfate) in the following media: (1) HCl/KCl, pH 1.2; (2) Acetate, pH 4.5; (3) Phosphate, pH 6.8; (4) FaSSIF; (5) FeSSIF; and (6) FaSSGF. Slurries of the hydrogen sulfate forms were prepared in the appropriate medium and stirred at 25° C. For the experiments in the buffer media, the pH of the slurry samples was measured and adjusted as required after 1 hour and 23 hours of the slurrying. Additional solid was added where dissolution was observed post-adjustment. The pH of the samples in the biorelevant media was measured at the 23 hour timepoint. No pH adjustment was made for the biorelevant media. After a total of 24 hours of slurrying, the mother liquors were extracted via centrifugation, and the concentrations and solution purity were determined by HPLC. The residual solids were isolated and analyzed by XRPD and are shown in FIG. 77, FIG. 78, and FIG. 79. The assessment was repeated for some of the samples, where required.

[2] = Variable Temperature X-Ray Powder Diffraction (VT-XRPD); assay type: physicochemical; design: key: Crystalline Form 2 di(hydrogen sulfate) trihydrate; Crystalline Form 5 di(hydrogen sulfate); PC: Poorly Crystalline; conditions: second Heating, hold 30 min
Procedure: (§1) In the examples below, VT-XRPD analysis was carried out on a Philips X'Pert Pro Multipurpose diffractometer equipped with a temperature chamber. The samples were scanned between 4 and 36° 2θ using Cu K radiation (α1 λ=1.54060 Å; α2=1.54443 Å; β=1.39225 Å; α1: α2 ratio=0.5; most, if not all, B radiation is removed from the beam using an X-ray mirror) running in Bragg-Brentano geometry (step size 0.008° 2θ) using 40 kV/40 mA generator settings. Measurements were carried out from ambient temperature to an upper limit of 250° C., with a final measurement taken after cooling.
as §1, with “VT-XRPD” for “In the examples below, VT-XRPD”, “Å; β2=1.39225” for “Å; β=1.39225”, “Å; α1:α2” for “Å; α1: α2”, “all, β” for “all, B”

ENT1 = molecular target: T1, ENT1 (Homo sapiens, UniProt Q99808); experiment: ENT1 activity: intracellular uptake of 5-Ethynyl-Uridine (5EU) in whole blood, CD19 positive cells, flow cytometry; assay type: cell-based; conditions: 5EU 60 min at 37° C.
T1 construct: endogenous in cells; host or cells: CD19-positive cells (B cells) in whole blood from healthy donors
T1 sequence (Q99808 1-456): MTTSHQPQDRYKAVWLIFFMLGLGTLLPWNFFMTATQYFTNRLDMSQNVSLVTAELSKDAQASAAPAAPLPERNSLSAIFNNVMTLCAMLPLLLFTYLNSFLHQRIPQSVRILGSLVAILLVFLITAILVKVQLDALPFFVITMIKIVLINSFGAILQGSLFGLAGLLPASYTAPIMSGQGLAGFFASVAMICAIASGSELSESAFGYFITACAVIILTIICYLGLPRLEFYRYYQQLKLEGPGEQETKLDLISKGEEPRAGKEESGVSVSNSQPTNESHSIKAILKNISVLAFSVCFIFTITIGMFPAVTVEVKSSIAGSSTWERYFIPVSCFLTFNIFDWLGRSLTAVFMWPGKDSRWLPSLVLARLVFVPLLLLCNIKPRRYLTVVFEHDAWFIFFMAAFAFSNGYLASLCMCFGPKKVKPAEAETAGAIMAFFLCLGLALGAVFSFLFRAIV
Procedure: Example 20-ENT1 Activity of Crystalline Form 2 Compound 1 di(hydrogen sulfate) trihydrate compared to Compound 1 (free base)-Initial and after Six-Month Storage: (1) Initial time: Whole blood from 8 healthy donors was incubated with 5-Ethynyl-Uridine (5EU, CAS #: 69075-42-9, Jena Bioscience) for 60 min at 37° C., in the absence or presence of freshly suspended 1 μM Compound 1 (free base) or 1 μM Form 2 Compound 1 di(hydrogen sulfate) trihydrate. Intracellular uptake of 5EU through ENT1 transporters was assessed by standard flow cytometry and ENT1 activity was determined.
In FIG. 101, the data are expressed as % of ENT1 activity in untreated CD19 cells, arbitrary set at 100%, and are the means±SD of three independent experiments. Statistical analysis was performed using one-way analysis of variance (ANOVA) followed by Tukey's post hoc analysis with Prism 10.1.2 software (GraphPad Software). *: p<0.0001 vs. untreated B cells; ns: non-significant.
(2) Six months: Compound stability was evaluated on suspended solutions of Compound 1 (free base) or Form 2 Compound 1 di(hydrogen sulfate) trihydrate that were stored at −20° C. for 6 months. On the day of the experiment, whole blood from 3 healthy donors was incubated with 5-Ethynyl-Uridine (5EU, CAS #: 69075-42-9, Jena Bioscience) for 60 min at 37° C., in the absence or presence of either 1 μM Compound 1 (free base) or 1 μM Form 2 Compound 1 di(hydrogen sulfate) trihydrate of 6-month-old solutions. Intracellular uptake of 5EU through ENT1 transporters was assessed by standard flow cytometry and ENT1 activity was determined.
In FIG. 102, the data are expressed as % of ENT1 activity in untreated CD19 cells, arbitrary set at 100%, and are the means±SD. Statistical analysis was performed using two-way analysis of variance (ANOVA) with Prism 10.1.2 software (GraphPad Software). *: p<0.05 vs. untreated B cells; **: p<0.01 vs. untreated B cells; ns: non-significant.

CCCN1CCNCCCNC(=O)c2cc(OC)c(OC)c(c2)OCCC[C@@H](OC(=O)c2cc(OC)c(OC)c(OC)c2)CC1
XRPD of residual solids ([1]; attempt 1, 25° C.): A | XRPD of residual solids ([1]; attempt 2, 25° C.): A | VT-XRPD Results ([2]; 120° C.): 5 | VT-XRPD Results ([2]; 130° C.): 5 | decrease of ENT1 activity compared to untreated CD19 positive cells (ENT1; 1 μM of solutions stored at −20° C. for 6 months, whole blood from 3 healthy donors): 30.4% | decrease of ENT1 activity compared to untreated CD19 positive cells (ENT1; 1 μM, freshly suspended, whole blood from 8 healthy donors): 43.9%
